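Briefly, cells in 96-well plates were exposed to five compound concentrations for 48 h, and endpoints were estimated by linear interpolation. Here, GI50 denotes the concentration required for 50% inhibition of growth.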 The source made the active and inactive calls. Cut-off read from the data, not from the text of the source: active = GI50 up to about 1.1 µM and inactive = higher.
Key:
Assay in all cases: DTP human tumour cell line panel, 48 h
[1] = tested on: UACC-257
[2] = tested on: NCI/ADR-RES
[3] = tested on: SN12C
[4] = tested on: TK-10
[5] = tested on: SF-295
[6] = tested on: Hs-578T
[7] = tested on: MCF7
[8] = tested on: EKVX
[9] = tested on: HCT-116
[10] = tested on: A549
[11] = tested on: LOX IMVI
[12] = tested on: Malme-3M
[13] = tested on: CCRF-CEM
[14] = tested on: OVCAR-3
[15] = tested on: CAKI-1
[16] = tested on: DU-145
[17] = tested on: OVCAR-8
[18] = tested on: SK-MEL-28
[19] = tested on: MOLT-4
[20] = tested on: SK-MEL-2
[21] = tested on: MDA-MB-435
[22] = tested on: PC-3
[23] = tested on: UO-31
[24] = tested on: NCI-H23
[25] = tested on: SK-MEL-5
[26] = tested on: K562
[27] = tested on: COLO 205
[28] = tested on: NCI-H522
[29] = tested on: RXF 393
[30] = tested on: UACC-62
[31] = tested on: SF-539
[32] = tested on: SR
[33] = tested on: ACHN
[34] = tested on: SK-OV-3
[35] = tested on: A498
[36] = tested on: HL-60
[37] = tested on: RPMI-8226
[38] = tested on: NCI-H460
[39] = tested on: MDA-MB-231
[40] = tested on: MDA-N
[41] = tested on: BT-549
[42] = tested on: HCC 2998
[43] = tested on: SNB-19
[44] = tested on: HT-29
[45] = tested on: KM12
[46] = tested on: U-251
[47] = tested on: M14
[48] = tested on: OVCAR-5
[49] = tested on: SW-620
[50] = tested on: 786-0
[51] = tested on: IGROV-1
[52] = tested on: SF-268
[53] = tested on: HCT-15
[54] = tested on: NCI-H226
[55] = tested on: T47D
[56] = tested on: SNB-75
[57] = tested on: HOP-92
[58] = tested on: HOP-62
[59] = tested on: OVCAR-4

Measured: GI50

O=Cc1ccc(-c2ccc(S(=O)(=O)O)cc2)o1
> 100 µM: [53]
inactive: [1] > 100 µM | [2] > 100 µM | [3] > 100 µM | [4] > 100 µM | [5] > 100 µM | [6] > 100 µM | [7] > 100 µM | [8] > 100 µM | [9] > 100 µM | [10] > 100 µM | [11] > 100 µM | [12] > 100 µM | [13] > 10 µM | [14] > 100 µM | [15] > 100 µM | [16] > 100 µM | [17] > 100 µM | [18] > 100 µM | [19] > 100 µM | [20] > 100 µM | [21] > 100 µM | [22] > 100 µM | [23] > 100 µM | [24] > 100 µM | [25] > 100 µM | [26] > 100 µM | [27] > 100 µM | [28] > 100 µM | [29] > 100 µM | [30] > 100 µM | [31] > 100 µM | [32] > 100 µM | [33] > 100 µM | [34] > 100 µM | [35] > 100 µM | [36] > 100 µM | [37] > 100 µM | [38] > 100 µM | [39] > 100 µM | [40] > 100 µM | [41] > 100 µM | [42] > 100 µM | [43] > 100 µM | [44] > 100 µM | [45] > 100 µM | [46] > 100 µM | [47] > 100 µM | [48] > 100 µM | [49] > 100 µM | [50] > 100 µM | [51] > 100 µM | [52] > 100 µM | [54] > 100 µM

CCN(CCC#N)C(=O)Nc1ccccc1
inactive: [1] > 100 µM | [2] > 100 µM | [3] > 100 µM | [4] > 100 µM | [5] > 100 µM | [7] > 100 µM | [8] > 100 µM | [9] > 100 µM | [10] > 100 µM | [11] > 100 µM | [12] 62.7 µM | [13] > 100 µM | [14] > 100 µM | [15] > 100 µM | [16] > 100 µM | [17] > 100 µM | [18] > 100 µM | [19] > 100 µM | [20] > 100 µM | [21] > 100 µM | [22] > 100 µM | [23] > 100 µM | [55] > 100 µM | [24] > 100 µM | [25] > 100 µM | [26] > 100 µM | [27] > 100 µM | [28] > 100 µM | [29] > 100 µM | [30] > 100 µM | [31] > 100 µM | [56] 93.1 µM | [33] > 100 µM | [34] > 100 µM | [37] > 100 µM | [38] > 100 µM | [39] > 100 µM | [40] > 100 µM | [41] > 100 µM | [42] > 100 µM | [43] > 100 µM | [44] > 100 µM | [45] 86.7 µM | [46] > 100 µM | [47] > 100 µM | [48] > 100 µM | [57] > 100 µM | [49] > 100 µM | [58] > 100 µM | [50] > 100 µM | [51] > 100 µM | [59] > 100 µM | [54] > 100 µM
> 100 µM: [53]

CC1(C)CCC2=C(O1)c1ccccc1/C(=N/c1ccc([N+](=O)[O-])cc1)C2=O
31 µM: [53]
inactive: [1] 16.5 µM | [2] 21.2 µM | [4] 18.6 µM | [6] 29 µM | [7] 13.2 µM | [8] 16.4 µM | [9] 7.33 µM | [10] 16.4 µM | [12] 16 µM | [14] 12.3 µM | [15] 16.7 µM | [17] 14 µM | [18] 16.3 µM | [19] 13.8 µM | [20] 16.1 µM | [22] 14 µM | [23] 10.6 µM | [55] 11.8 µM | [25] 16.7 µM | [26] 13.4 µM | [28] 13.6 µM | [29] 16.5 µM | [30] 14.7 µM | [56] 18.3 µM | [32] 14.2 µM | [33] 12.9 µM | [34] 17.7 µM | [35] 18.7 µM | [38] 15.5 µM | [39] 17.7 µM | [40] 14.9 µM | [41] 20.1 µM | [42] 17.7 µM | [43] 18.5 µM | [44] 12.7 µM | [45] 14.5 µM | [46] 14.4 µM | [47] 8.24 µM | [57] 39.1 µM | [49] 16.1 µM | [58] 17.1 µM | [50] 20 µM | [51] 51.1 µM | [52] 29.7 µM | [59] 15.1 µM | [54] 12.4 µM
active: [36] 0.728 µM

From ChEMBL document CHEMBL1201862, “PubChem BioAssay data set” (2004)
